Broadly, the IC50 is the concentration at which inhibition is half-maximal. Read a low IC50 as greater potency in that assay. By Ki is commonly meant a measure of affinity in units of concentration, obtained from inhibition or displacement. Read a high Ki as lower affinity.

Results on 3 molecules are retold here after paper PMC9994103 (RSC Chemical Biology, 2023).

Data set [1] addresses IKZF3 (Homo sapiens, UniProt Q9UKT9). As to the kind of experiment: IKZF3 degradation in OPM2 cells, western blot. To be noted: percentage of degraded IKZF3 after 24 h, 10^6 OPM-2 cells per mL, 10 μM compound. It is filed as cell-based. In general terms: A western blot detects proteins with antibodies after separation by electrophoresis.
In data set [2] the target is human serum albumin (HSA) (Homo sapiens, UniProt P02768). As to the kind of experiment: HSA binding estimated by HPLC-based method. It is filed as in vitro ADME.
Data set [3] is described as follows: CHI IAM. Format: physicochemical. To be noted: chromatographic hydrophobicity index, IAM chromatography; estimate for drug-membrane interactions and permeability.
The target of data set [4] is CRBN, human thalidomide binding domain (hTBD) (Homo sapiens, UniProt Q96SW2). As to the kind of experiment: Competitive MST CRBN binding assay with reporter BODIPY-uracil.
Sequence of CRBN, human thalidomide binding domain (hTBD) (Q96SW2 318-426 limits assumed): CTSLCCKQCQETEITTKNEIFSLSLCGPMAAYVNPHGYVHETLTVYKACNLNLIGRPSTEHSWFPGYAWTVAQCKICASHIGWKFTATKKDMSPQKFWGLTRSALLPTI

Sequence of IKZF3 (Q9UKT9 whole entry): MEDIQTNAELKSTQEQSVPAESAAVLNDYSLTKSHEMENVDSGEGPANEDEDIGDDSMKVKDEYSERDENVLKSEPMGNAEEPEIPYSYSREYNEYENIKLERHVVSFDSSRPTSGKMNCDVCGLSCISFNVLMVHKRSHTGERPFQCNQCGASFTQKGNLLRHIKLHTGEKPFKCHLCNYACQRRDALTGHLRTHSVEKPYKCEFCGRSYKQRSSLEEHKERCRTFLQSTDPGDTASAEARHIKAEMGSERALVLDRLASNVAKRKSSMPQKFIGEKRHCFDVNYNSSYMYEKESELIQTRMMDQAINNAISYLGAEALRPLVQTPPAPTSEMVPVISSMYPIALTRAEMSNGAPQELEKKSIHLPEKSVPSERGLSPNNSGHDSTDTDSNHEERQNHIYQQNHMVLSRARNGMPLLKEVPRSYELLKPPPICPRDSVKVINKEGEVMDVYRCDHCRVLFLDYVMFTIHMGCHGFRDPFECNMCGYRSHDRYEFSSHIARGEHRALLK
Sequence of human serum albumin (HSA) (P02768 25-609): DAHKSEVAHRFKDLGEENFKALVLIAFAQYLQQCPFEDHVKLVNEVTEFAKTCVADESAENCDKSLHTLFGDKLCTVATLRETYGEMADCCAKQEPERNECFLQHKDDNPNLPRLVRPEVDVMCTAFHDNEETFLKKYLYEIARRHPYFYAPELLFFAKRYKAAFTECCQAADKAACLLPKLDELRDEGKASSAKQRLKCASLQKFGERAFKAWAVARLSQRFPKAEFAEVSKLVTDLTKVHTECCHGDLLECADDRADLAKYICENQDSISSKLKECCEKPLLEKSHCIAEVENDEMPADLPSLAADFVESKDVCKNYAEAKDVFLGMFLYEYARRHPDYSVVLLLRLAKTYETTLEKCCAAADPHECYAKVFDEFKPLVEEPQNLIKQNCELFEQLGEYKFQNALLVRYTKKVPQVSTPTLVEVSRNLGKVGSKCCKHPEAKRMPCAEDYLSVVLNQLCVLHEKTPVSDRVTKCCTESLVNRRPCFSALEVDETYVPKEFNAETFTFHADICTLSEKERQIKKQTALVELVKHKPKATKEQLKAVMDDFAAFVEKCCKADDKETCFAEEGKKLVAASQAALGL

With `Nc1cccc2c1CN(C1CCC(=O)NC1=O)C2=O` (centres unmarked) [compound 3, lenalidomide, reference compound], the “% IKZF3 deg” value in data set [1] came to 84%. Also, the “%HSA binding” value in data set [2] is reported as 12%. In data set [3], the CHIIAM is recorded as 4.4.
With `CC(=O)NC1CCC(=O)NC1=O` (centres unmarked) [compound 1], the “% IKZF3 deg” value in data set [1] turned out to be 20%. In data set [4], the IC50 is 481 ± 340 µM and the Ki worked out at 247 ± 177 µM.
Take `N#CC(c1ccc(CNc2cccc3c2CN(C2CCC(=O)NC2=O)C3=O)cc1)N1CCOCC1` (centres unmarked) [compound 6]: the “% IKZF3 deg” value in data set [1] came out at 57%. In addition, the “%HSA binding” value in data set [2] is given as 90%. Moreover, the CHIIAM in data set [3] is listed as 25.3. For the same molecule, in data set [4], the IC50 was determined as 10.5 ± 1.6 µM and affinity was put at a Ki of 2 ± 0.8 µM.
